# Biological target: T1, TvmNAG2 (Trichoderma virens, UniProt G9MXZ5)
# T1 construct: gene NAG2; mature (signal peptide removed)
# Experiment: p-nitrophenol release at […] nm, Lineweaver-Burk
# Format: biochemical
# Conditions: standard assay: 50 mM phosphate buffer pH 5, 65 °C, 30 min
# T1 sequence (G9MXZ5 entry or part of it): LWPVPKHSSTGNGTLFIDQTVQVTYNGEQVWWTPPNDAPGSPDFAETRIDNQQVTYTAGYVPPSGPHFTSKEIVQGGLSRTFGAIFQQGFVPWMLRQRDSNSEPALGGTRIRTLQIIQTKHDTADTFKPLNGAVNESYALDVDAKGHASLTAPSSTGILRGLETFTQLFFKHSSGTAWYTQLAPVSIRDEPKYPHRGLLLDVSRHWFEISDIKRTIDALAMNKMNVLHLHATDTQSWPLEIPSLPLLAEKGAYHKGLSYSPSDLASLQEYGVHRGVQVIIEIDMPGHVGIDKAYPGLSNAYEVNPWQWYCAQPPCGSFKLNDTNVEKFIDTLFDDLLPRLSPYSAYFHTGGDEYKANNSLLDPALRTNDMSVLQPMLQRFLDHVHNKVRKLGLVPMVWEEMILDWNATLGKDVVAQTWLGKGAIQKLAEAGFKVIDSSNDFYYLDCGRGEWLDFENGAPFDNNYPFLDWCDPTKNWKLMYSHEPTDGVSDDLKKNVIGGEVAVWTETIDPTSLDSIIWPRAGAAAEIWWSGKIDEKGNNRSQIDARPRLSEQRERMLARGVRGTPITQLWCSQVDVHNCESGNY
structure (smiles),measurement,value
CC(=O)N[C@H]1[C@H](Oc2ccc([N+](=O)[O-])cc2)O[C@H](CO)[C@@H](O)[C@@H]1O [pNP-NAG],Km,~450 µM
